# Results as given in paper PMC9067978, “Design, synthesis, and molecular docking studies of novel pomalidomide-based PROTACs as potential anti-cancer agents targeting EGFR^WT and EGFR^T790M” (Journal of Enzyme Inhibition and Medicinal Chemistry, 2022).
# Entries after “also recorded” stand apart in the source; their conditions may differ.
# Key:
# HepG-2 [1] = experiment: MTT anti-proliferative assay, HepG-2
# Method: (§8) The anti-proliferative activity was quantified in the following way. At a density of 3–8 × 10^3 cells per well, human cancer cell lines were introduced to 96-well plates. The wells were then incubated at 37 °C for 12 hours in 5% CO2 incubator. To determine the DMSO content, the culture media was swapped with 0.1 ml of fresh medium containing graded amounts of the test compounds for each well. Incubation time for the wells was two days. The cells were then cultured in 100 µl MTT solution (5 µg ml^−1) for another 4 hours in each well.
# (§9) The absorbance of each well was measured at 490 nm with an automated ELISA reader system (TECAN, CHE) after MTT-formazan crystals were dissolved in 100 µl of DMSO. The IC50 values were calculated using nonlinear regression fitting models (Graph Pad, Prism Version 5). The results were expressed as means ± SD and were based on the average of three separate, duplicate trials.
# EGFR^WT = molecular target: T1, EGFR^WT (Homo sapiens, UniProt P00533); experiment: EGFR^WT kinase inhibitory assay (HTRF); type: biochemical; conditions: ATP 1.65 µM, mean ± S.D of three experiments
# T1 construct: purchased Sigma
# T1 sequence (P00533 25-1210): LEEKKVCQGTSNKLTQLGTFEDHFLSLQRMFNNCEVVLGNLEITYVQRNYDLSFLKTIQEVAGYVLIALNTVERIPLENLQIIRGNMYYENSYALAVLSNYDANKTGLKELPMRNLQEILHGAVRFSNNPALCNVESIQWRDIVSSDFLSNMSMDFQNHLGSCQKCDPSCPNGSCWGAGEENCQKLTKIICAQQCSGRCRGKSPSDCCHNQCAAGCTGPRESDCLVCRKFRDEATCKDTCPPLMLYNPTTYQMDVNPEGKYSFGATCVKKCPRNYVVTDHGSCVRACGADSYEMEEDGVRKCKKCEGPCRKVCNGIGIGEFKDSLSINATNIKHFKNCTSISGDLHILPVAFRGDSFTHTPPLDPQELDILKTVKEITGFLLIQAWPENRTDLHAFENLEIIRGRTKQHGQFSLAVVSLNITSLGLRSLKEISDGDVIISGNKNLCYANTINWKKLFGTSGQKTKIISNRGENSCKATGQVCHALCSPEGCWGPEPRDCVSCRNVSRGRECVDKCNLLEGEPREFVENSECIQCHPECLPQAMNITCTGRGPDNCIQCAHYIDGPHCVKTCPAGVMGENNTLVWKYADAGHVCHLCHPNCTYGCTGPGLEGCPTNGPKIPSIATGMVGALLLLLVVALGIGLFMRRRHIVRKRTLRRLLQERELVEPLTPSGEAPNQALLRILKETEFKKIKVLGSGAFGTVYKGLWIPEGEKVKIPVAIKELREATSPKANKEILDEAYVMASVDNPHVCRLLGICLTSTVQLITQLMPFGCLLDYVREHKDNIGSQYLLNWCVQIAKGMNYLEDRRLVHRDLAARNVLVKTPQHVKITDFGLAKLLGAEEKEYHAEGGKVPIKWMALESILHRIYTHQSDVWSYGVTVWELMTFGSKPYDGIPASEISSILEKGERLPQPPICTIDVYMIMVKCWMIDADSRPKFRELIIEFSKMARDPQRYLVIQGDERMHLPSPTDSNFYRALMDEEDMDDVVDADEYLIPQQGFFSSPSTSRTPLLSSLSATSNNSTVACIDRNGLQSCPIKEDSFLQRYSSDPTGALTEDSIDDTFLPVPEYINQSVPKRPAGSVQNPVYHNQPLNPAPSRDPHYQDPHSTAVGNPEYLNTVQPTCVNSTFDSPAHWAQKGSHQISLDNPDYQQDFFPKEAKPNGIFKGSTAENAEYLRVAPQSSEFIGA
# Method: This test used HTRF[44] assay with EGFR^WT and EGFR^T790M (Sigma). For the first 5 minutes, the evaluated compounds were incubated with EGFR^WT and/or EGFR^T790M and their substrates in the enzymatic buffer. […] The assay was performed at 37 °C for 30 minutes. The addition of EDTA-containing detection reagents halted the process. After one hour detection period, GraphPad Prism 5.0 was used to calculate the IC50 values. For each concentration, three separate trials were carried out.
# Akt phosphorylation = experiment: Western blotting, Akt phosphorylation in A549 cells; type: cell-based, human; conditions: A549 cells, 0.1, 0.3 and 1 µM, erlotinib for comparison
# Method: (§1) At a concentration of 100 nM, the time-dependent degradation activities of compounds 15–21 were also examined (Figure 5(A)).
# (§2) Figure 5. (A) EGFR time-dependent degradation by compound 16 in A549 cell lines. Cells were treated with100 nM of 15–21 for indicated time points. Western blotting was used to evaluate EGFR protein, and densitometry was used to measure EGFR degradation, which was adjusted to the density of β-actin protein (n ¼2). (B) Compounds 15 and 16 have EGFR degradation and phosphorylation inhibitory action in A549 cells. The cells were exposed to concentrations of 0.1, 0.3, and 1 µM. Erlotinib were utilised for comparison. […]
# (§3) Cells were seeded in 6-well plates at 1 × 10^6 per well, incubated at 37 °C with 5% CO2 for 24 h before drug exposure. […] The results were detected by an enhanced chemiluminescence system (Mill-pore). […]
# EGFR phosphorylation = experiment: Western blotting, EGFR phosphorylation in A549 cells; type: cell-based, human; conditions: A549 cells, 0.1, 0.3 and 1 µM, erlotinib for comparison
# Method: as §1, §2, §3
# MCF-7 = experiment: DNA-flow cytometric cell cycle analysis, MCF-7; type: cell-based, human; conditions: 3.92 µM, 24 hours
# Method: (§4) Then, the influence of compound 16 on the cell cycle profile was then investigated.
# (§5) The cells that had been tested were then trypsinized and washed in sterilised phosphate buffer saline (PBS). The collected cells were fixed with cold ethanol (100%, 1.5 ml). According to the manufacturer’s instructions, a Cycle TESTTM PLUS DNA Reagent Kit was used to dye the cells (BD Biosciences, San Jose, CA). A flow cytometer was used to assess cell-cycle distribution.[52]
# HepG-2 [2] = experiment: DNA-flow cytometric cell cycle analysis, HepG-2; type: cell-based, human; conditions: 3.02 µM, 24 hours
# Method: as §4, §5
# HCT-116 [3] = experiment: Annexin V/propidium iodide apoptosis assay, HCT-116; type: cell-based, human; conditions: 3.32 µM, 24 hours
# Method: (§6) The double staining Annexin V/propidium iodide technique was performed to assess the mechanism of cell death and apoptosis-inducing activity.[46] […] As shown in (Figure 7 (A and B).
# (§7) The negative control was chosen to be DMSO. The cells were then collected and washed twice in PBS. The cells were separated using centrifugation. An apoptosis detection kit (BD Biosciences, SanJose, CA) was used in this investigation. Following the manufacturer’s instructions, the cells were dyed with Annexin V-FITC and propidium iodide (PI) in the binding buffer for 20 minutes at 37 °C in the darkness. A flow cytometer was used to assess the binding of Annexin V-FITC and PI. The frequencies in all quadrants were investigated using the Flowjo program.[53]
# HepG-2 [4] = experiment: Annexin V/propidium iodide apoptosis assay, HepG-2; type: cell-based, human; conditions: 3.02 µM, 24 hours
# Method: as §6, §7
# HCT-116 [5] = experiment: DNA-flow cytometric cell cycle analysis, HCT-116; type: cell-based, human; conditions: 3.32 µM, 24 hours
# Method: as §4, §5
# A549 = experiment: MTT anti-proliferative assay, A549
# Method: as §8, §9
# [6] = ratio of cytotoxic IC50 to erlotinib
compound,measurement,setting,value
"Cn1c(=O)c(C(=O)NNCCOCCOCC(=O)Nc2cccc3c2C(=O)N(C2CCC(=O)NC2=O)C3=O)nc2ccccc21 (stereo not shown) [Compound 16, N-(2-(2,6-dioxopiperidin-3-yl)-1,3-dioxoisoindolin-4-yl)-2-(2-(2-(2-(4-methyl-3-oxo-3,4-dihydroquinoxaline-2-carbonyl) hydrazinyl)ethoxy)ethoxy) acetamide]",IC50,"HepG-2 [1]; Homo sapiens, HepG2, read-out: IC50 HepG-2",3.02 ± 0.12 µM
same,"folds more active than erlotinib, HepG-2",HepG-2 [1]; [6],4.34 folds
same,IC50,EGFR^WT,0.1 ± 0.03 µM
same,"inhibition of Akt phosphorylation, in words",Akt phosphorylation,effectively displayed inhibitory activity; also recorded: comparable to erlotinib
same,"inhibition of EGFR phosphorylation, in words",EGFR phosphorylation,effectively displayed inhibitory activity
same,"fold increase of cells in G2-M phase vs control, MCF-7",MCF-7,1.53 fold
same,"fold increase of cells in pre-G1 phase vs control, MCF-7",MCF-7,4.39 fold
same,"fold increase of cells in G2-M phase vs control, HepG-2",HepG-2 [2],1.61 fold
same,"fold increase of cells in pre-G1 phase vs control, HepG-2",HepG-2 [2],6.76 fold
same,"cellular apoptosis, early and late, times vs control, HCT-116",HCT-116 [3],~9 times
same,"early apoptosis ratio, HCT-116",HCT-116 [3],5.96%
same,"late apoptosis ratio, HCT-116",HCT-116 [3],5.15%
same,"cellular apoptosis, early and late, folds vs control, HepG-2",HepG-2 [4],~13 folds
same,"early apoptosis ratio, HepG-2",HepG-2 [4],7.55%
same,"late apoptosis ratio, HepG-2",HepG-2 [4],5.53%
same,"fold increase of cells in G2-M phase vs control, HCT-116",HCT-116 [5],1.49 fold
same,"fold increase of cells in pre-G1 phase vs control, HCT-116",HCT-116 [5],5.37 fold
same,IC50,"A549; Homo sapiens, A549, read-out: IC50 A549",2.69 ± 0.09 µM
same,"folds more active than erlotinib, A549",A549; [6],7.18 folds
